These results are taken from publication PMC4459529 (Chemistry & biology, 2015).

Each structure is given as a SMILES string.

For orientation: IC50 means the concentration needed to halve the response being measured. Read a low IC50 as inhibition by little substance.

In this assay the target is monoacylglycerol lipase (MGL) (Rattus norvegicus, UniProt Q8R431). The assay can be described thus: biochemical.
Sequence of monoacylglycerol lipase (MGL) (Q8R431 whole entry): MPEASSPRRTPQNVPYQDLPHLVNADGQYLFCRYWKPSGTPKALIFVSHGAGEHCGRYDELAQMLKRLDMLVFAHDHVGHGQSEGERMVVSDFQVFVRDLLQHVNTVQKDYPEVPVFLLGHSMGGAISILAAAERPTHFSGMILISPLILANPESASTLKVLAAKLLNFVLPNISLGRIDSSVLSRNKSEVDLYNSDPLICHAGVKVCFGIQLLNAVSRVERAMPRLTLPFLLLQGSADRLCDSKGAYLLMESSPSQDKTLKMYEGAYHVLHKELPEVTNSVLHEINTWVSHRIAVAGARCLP

For the molecule `OO` [hydrogen peroxide], the IC50 was 8.2 ± 1.3 µM.
